Consider 23 compounds from patent US9999616B2 (ZENITH EPIGENETICS LTD., priority 2013, dated 2018).

For experiment [1], the system named is hIL-6 mRNA. Nature of the experiment: Inhibition of hIL-6 mRNA transcription in LPS-stimulated U937 macrophages. The class given is cell-based, Human. Particulars: Homo sapiens, U-937, PMA-differentiated U937 cells, 1 h pretreatment, LPS 3 h, read-out: IL-6 activity. The method, boiled down: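 PMA-differentiated U937 macrophages (60 ng/mL PMA, 3 days) pretreated 1 h with compound in 0.1% DMSO, then stimulated with 1 ug/mL E. coli LPS for 3 h at 37° C. IL-6 mRNA quantified by one-step TaqMan qRT-PCR, normalized to cyclophilin; fold expression relative to control, triplicate wells.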

The target of experiment [2] is Brd4 bromodomain 1 (BRD4(1)) (Homo sapiens, UniProt O60885). Nature of the experiment: Inhibition of tetra-acetylated histone H4 binding to Brd4 bromodomain 1, measured by FRET (HTRF). The arrangement: made in house; host or cells: E. coli BL21(DE3). Particulars: 2 h at room temperature. In a few lines:
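Inhibition was read as a drop in 665 nm relative to 620 nm HTRF signal after 2 h at room temperature, with IC50 from dose-response curves in duplicate wells. Reactions held 200 nM E. coli-expressed His-tagged bromodomain and 25-50 nM biotinylated tetra-acetylated histone H4 peptide. Buffer was 30 mM HEPES pH 7.4 with KF, CHAPS, BSA and 0.2% DMSO.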

In experiment [3] the test system is c-myc in Human AML MV4-11 cells. Nature of the experiment: Inhibition of cMYC expression (mRNA, real-time PCR) in MV4-11 cells. It is filed as cell-based. Particulars: 3 h treatment, cMYC mRNA by real-time PCR. The method, boiled down:
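MV4-11 cells in IMDM with 10% FBS were treated with increasing compound concentrations (DMSO 0.1%) for 3 h at 37 °C, in triplicate. Isolated mRNA was quantified by one-step TaqMan RT-qPCR, cMYC Ct normalized to cyclophilin, and fold expression given relative to DMSO control.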

Experiment [4] deals with Human AML MV-4-11 cells. Nature of the experiment: Inhibition of cell proliferation in MV4-11 cells (CellTiter Aqueous One). As to conditions: for IC50: MV4-11, 72 h. It is filed as cell-based. The method, boiled down: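 MV4-11 cells, 5×10^4 per well in IMDM with 10% FBS, were exposed to increasing compound concentrations or 0.1% DMSO for 72 h at 37 °C in triplicate. Viability was read by MTS (CellTiter Aqueous One) absorbance at 490 nm after 3-4 h. IC50 was derived from background-corrected signal relative to DMSO.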

For `Cc1nc2c(-c3cccc(C)c3F)cc(-c3c(C)noc3C)cc2[nH]1` [Example Compound 106, 4-(4-(2-fluoro-3-methyl-phenyl)-2-methyl-1H-benzo[d]imidazol-6-yl)-3,5-dimethyl isoxazole], the IC50 in experiment [1] is 300 to 3000 nM; in experiment [2] it was at most 300 nM; in experiment [3] it was 300 to 3000 nM; in experiment [4], 300 to 3000 nM.
For the compound `COc1ccc(Cl)cc1-c1cc(-c2c(C)noc2C)cc2[nH]c(C)nc12` [Example Compound 107, 4-(4-(5-chloro-2-methoxy-phenyl)-2-methyl-1H-benzo[d]imidazol-6-yl)-3,5-dimethyl isoxazole], the IC50 in experiment [1] is 300 to 3000 nM; in experiment [2], at most 300 nM; in experiment [3], 300 to 3000 nM; in experiment [4], 300 to 3000 nM.
Turning to `COc1ccc(F)c(-c2cc(-c3c(C)noc3C)cc3[nH]c(C)nc23)c1` [Example Compound 108, 4-(4-(2-fluoro-5-methoxy-phenyl)-2-methyl-1H-benzo[d]imidazol-6-yl)-3,5-dimethyl isoxazole], the IC50 in experiment [1] is 300 to 3000 nM; in experiment [2] it was at most 300 nM; in experiment [3], 300 to 3000 nM; in experiment [4], 300 to 3000 nM.
In the case of `CCOc1ncccc1-c1cc(-c2c(C)noc2C)cc2[nH]c(C)nc12` [Example Compound 109, 4-(4-(2-ethoxy-pyridin-3-yl)-2-methyl-1H-benzo[d]imidazol-6-yl)-3,5-dimethyl isoxazole], the IC50 in experiment [1] is at most 300 nM; in experiment [2], at most 300 nM; in experiment [3], 300 to 3000 nM; in experiment [4] it was 300 to 3000 nM.
Regarding `Cc1nc2c(-c3cccc4ccncc34)cc(-c3c(C)noc3C)cc2[nH]1` [Example Compound 110, 4-(4-(iso-quinolin-8-yl)-2-methyl-1H-benzo[d]imidazol-6-yl)-3,5-dimethyl isoxazole], the IC50 in experiment [1] is 300 to 3000 nM; in experiment [2], at most 300 nM; in experiment [3] it was 300 to 3000 nM; in experiment [4] it was 300 to 3000 nM.
`COc1ccc(F)cc1-c1cc(-c2c(C)noc2C)cc2[nH]c(C)nc12` [Example Compound 112, 4-(4-(5-fluoro-2-methoxy-phenyl)-2-methyl-1H-benzo[d]imidazol-6-yl)-3,5-dimethyl-isoxazole]: the IC50 in experiment [1] was at most 300 nM; in experiment [2], at most 300 nM; in experiment [3], at most 300 nM; in experiment [4] it was 300 to 3000 nM.
Turning to `COCc1ccccc1-c1cc(-c2c(C)noc2C)cc2[nH]c(C)nc12` [Example Compound 117, 4-(4-(2-(methoxy-methyl)phenyl)-2-methyl-1H-benzo[d]imidazol-6-yl)-3,5-dimethyl-isoxazole], the IC50 in experiment [1], in experiment [2], in experiment [3] and in experiment [4] was at most 300 nM each time.
For the compound `COc1ncccc1-c1cc(-c2c(C)noc2C)cc2[nH]c(C)nc12` [Example Compound 118, 4-(4-(2-methoxy-pyridin-3-yl)-2-methyl-1H-benzo[d]imidazol-6-yl)-3,5-dimethyl isoxazole], the IC50 is 300 to 3000 nM in experiment [1], at most 300 nM in experiment [2], 300 to 3000 nM in experiment [3] and 300 to 3000 nM in experiment [4].
`Cc1ccncc1-c1cc(-c2c(C)noc2C)cc2cn[nH]c12` [Example Compound 119, 3,5-dimethyl-4-(7-(4-methyl-pyridin-3-yl)-1H-indazol-5-yl)isoxazole]: the IC50 in experiment [1] was at most 300 nM; in experiment [2], at most 300 nM; in experiment [3], 300 to 3000 nM; in experiment [4], 300 to 3000 nM.
As to `Cc1nn(C)cc1-c1cc(-c2c(C)noc2C)cc2cn[nH]c12` [Example Compound 120, 4-(7-(1,3-dimethyl-1H-pyrazol-4-yl)-1H-indazol-5-yl)-3,5-dimethyl isoxazole], the IC50 in experiment [1] is at most 300 nM; in experiment [2] it was at most 300 nM; in experiment [3], at most 300 nM; in experiment [4] it was 300 to 3000 nM.
Take `Cc1nc2c(-c3cccc(C#N)c3C)cc(-c3c(C)noc3C)cc2[nH]1` [Example Compound 123, 3-(6-(3,5-dimethyl-isoxazol-4-yl)-2-methyl-1H-benzo[d]imidazol-4-yl)-2-methyl-benzonitrile]: the IC50 in experiment [1] is at most 300 nM; in experiment [2], at most 300 nM; in experiment [3], at most 300 nM; in experiment [4], 300 to 3000 nM.
Consider `Cc1nc2c(-c3ccc4scnc4c3)cc(-c3c(C)noc3C)cc2[nH]1` [Example Compound 124, 4-(4-(benzo[d]thiazol-5-yl)-2-methyl-1H-benzo[d]imidazol-6-yl)-3,5-dimethyl isoxazole], for which the IC50 in experiment [1] was 300 to 3000 nM; in experiment [2], at most 300 nM; in experiment [3], 300 to 3000 nM; in experiment [4], 300 to 3000 nM.
As for `Cc1noc(C)c1-c1cc(-c2c(C)nn(C)c2C)c2[nH]ncc2c1` [Example Compound 127, 3,5-dimethyl-4-(7-(1,3,5-trimethyl-1H-pyrazol-4-yl)-1H-indazol-5-yl)isoxazole], the IC50 in experiment [1], in experiment [2], in experiment [3] and in experiment [4] was at most 300 nM each time.
With `Cc1noc(C)c1-c1cc(-c2cccnc2C(F)(F)F)c2[nH]ncc2c1` [Example Compound 128, 3,5-dimethyl-4-(7-(2-(trifluoromethyl)pyridin-3-yl)-1H-indazol-5-yl)isoxazole], the IC50 is at most 300 nM in experiment [1], 300 to 3000 nM in experiment [2], 300 to 3000 nM in experiment [3] and 300 to 3000 nM in experiment [4].
Consider `Cc1noc(C)c1-c1cc(-c2cnccc2C(F)(F)F)c2[nH]ncc2c1` [Example Compound 129, 3,5-dimethyl-4-(7-(4-(trifluoromethyl)pyridin-3-yl)-1H-indazol-5-yl)isoxazole], for which the IC50 in experiment [1], in experiment [2], in experiment [3] and in experiment [4] was 300 to 3000 nM in each case.
In the case of `Cc1nc2c(-c3c(Cl)cncc3Cl)cc(-c3c(C)noc3C)cc2[nH]1` [Example Compound 130, 4-(4-(3,5-dichloro-pyridin-4-yl)-2-methyl-1H-benzo[d]imidazol-6-yl)-3,5-dimethyl isoxazole], the IC50 was at most 300 nM in experiment [1], at most 300 nM in experiment [2], 300 to 3000 nM in experiment [3] and 300 to 3000 nM in experiment [4].
For the compound `COc1ncc(F)cc1-c1cc(-c2c(C)noc2C)cc2[nH]c(C)nc12` [Example Compound 131, 4-(4-(5-fluoro-2-methoxy-pyridin-3-yl)-2-methyl-1H-benzo[d]imidazol-6-yl)-3,5-dimethyl isoxazole], the IC50 in experiment [1], in experiment [2], in experiment [3] and in experiment [4] was 300 to 3000 nM each time.
For `Cc1nc2c(-c3ccc(F)c(F)c3C)cc(-c3c(C)noc3C)cc2[nH]1` [Example Compound 132, 4-(4-(3,4-difluoro-2-methyl-phenyl)-2-methyl-1H-benzo[d]imidazol-6-yl)-3,5-dimethyl isoxazole], the IC50 in experiment [1], in experiment [2], in experiment [3] and in experiment [4] was 300 to 3000 nM each time.
Turning to `COc1nc(C)ccc1-c1cc(-c2c(C)noc2C)cc2[nH]c(C)nc12` [Example Compound 135, 4-(4-(2-methoxy-6-methyl-pyridin-3-yl)-2-methyl-1H-benzo[d]imidazol-6-yl)-3,5-dimethyl isoxazole], the IC50 is 300 to 3000 nM in experiment [1], at most 300 nM in experiment [2], at most 300 nM in experiment [3] and 300 to 3000 nM in experiment [4].
For the compound `Cc1nc2c(-c3ccc4ocnc4c3)cc(-c3c(C)noc3C)cc2[nH]1` [Example Compound 136, 5-(6-(3,5-dimethyl-isoxazol-4-yl)-2-methyl-1H-benzo[d]imidazol-4-yl)benzo[d] oxazole], the IC50 in experiment [1] was 300 to 3000 nM; in experiment [2], at most 300 nM; in experiment [3] it was at most 300 nM; in experiment [4] it was 300 to 3000 nM.
On to `Cc1nc2c(-c3cccc4ccccc34)cc(-c3c(C)noc3C)cc2[nH]1` [Example Compound 138, 3,5-dimethyl-4-(2-methyl-4-(naphthalen-1-yl)-1H-benzo[d]imidazol-6-yl)isoxazole], for which the IC50 in experiment [1] is at most 300 nM; in experiment [2] it was at most 300 nM; in experiment [3], 300 to 3000 nM; in experiment [4], 300 to 3000 nM.
For the compound `Cc1nc2c(-c3csnc3C)cc(-c3csnc3C)cc2[nH]1` [Example Compound 139, 4,4′-(2-methyl-1H-benzo[d]imidazole-4,6-diyl)bis(3-methylisothiazole)], the IC50 in experiment [1] was 300 to 3000 nM; in experiment [2], 300 to 3000 nM; in experiment [3] it was 3000 to 30000 nM. Moreover, the “Cell Proliferation activity” value in experiment [4] (72 h) is reported as “Not active”.
As for `Cc1noc(C)c1-c1cc(NCCc2ccccc2)c2nc[nH]c2c1` [Example Compound 142, 6-(3,5-dimethyl-isoxazol-4-yl)-N-phenethyl-1H-benzo[d] imidazol-4-amine], the IC50 in experiment [1], in experiment [2], in experiment [3] and in experiment [4] was 300 to 3000 nM each time.
